These results are taken from US12581252B2, “Substituted pyrrolo[3,4-b]pyridines as PI3K-α inhibitors” (Relay Therapeutics, Inc., priority 2020, dated 2026).

SMILES strings stand for the structures.

H1047R PIK3CA enzyme, sequence (P42336 whole entry H1047R): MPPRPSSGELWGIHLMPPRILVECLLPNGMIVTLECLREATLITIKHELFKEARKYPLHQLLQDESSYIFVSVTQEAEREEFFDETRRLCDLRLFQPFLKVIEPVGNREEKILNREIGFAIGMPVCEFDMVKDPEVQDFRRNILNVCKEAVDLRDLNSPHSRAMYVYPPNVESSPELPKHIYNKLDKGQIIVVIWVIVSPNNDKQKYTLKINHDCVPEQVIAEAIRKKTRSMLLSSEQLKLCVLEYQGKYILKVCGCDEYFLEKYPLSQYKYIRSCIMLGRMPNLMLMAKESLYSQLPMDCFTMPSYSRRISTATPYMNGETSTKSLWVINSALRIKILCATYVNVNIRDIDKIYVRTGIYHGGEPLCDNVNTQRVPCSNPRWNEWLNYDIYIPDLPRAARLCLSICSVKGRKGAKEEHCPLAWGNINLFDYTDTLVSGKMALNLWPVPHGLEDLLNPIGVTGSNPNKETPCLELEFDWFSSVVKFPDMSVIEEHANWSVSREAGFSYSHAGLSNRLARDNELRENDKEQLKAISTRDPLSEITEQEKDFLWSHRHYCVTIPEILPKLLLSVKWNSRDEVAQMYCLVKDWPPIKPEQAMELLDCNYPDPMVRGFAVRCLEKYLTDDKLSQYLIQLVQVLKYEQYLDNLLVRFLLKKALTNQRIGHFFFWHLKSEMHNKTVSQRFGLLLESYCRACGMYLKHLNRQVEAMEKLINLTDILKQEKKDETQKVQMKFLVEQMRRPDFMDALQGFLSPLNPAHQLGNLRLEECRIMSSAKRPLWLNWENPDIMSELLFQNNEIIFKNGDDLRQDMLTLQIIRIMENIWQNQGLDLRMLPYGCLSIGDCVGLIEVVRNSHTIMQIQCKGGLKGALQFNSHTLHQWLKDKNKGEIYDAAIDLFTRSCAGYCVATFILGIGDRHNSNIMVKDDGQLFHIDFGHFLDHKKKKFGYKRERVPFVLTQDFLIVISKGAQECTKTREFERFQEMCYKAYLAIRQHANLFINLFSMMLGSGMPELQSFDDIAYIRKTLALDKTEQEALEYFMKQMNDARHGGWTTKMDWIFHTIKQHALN
H1047R PIK3CA enzyme, sequence (P27986 whole entry partner): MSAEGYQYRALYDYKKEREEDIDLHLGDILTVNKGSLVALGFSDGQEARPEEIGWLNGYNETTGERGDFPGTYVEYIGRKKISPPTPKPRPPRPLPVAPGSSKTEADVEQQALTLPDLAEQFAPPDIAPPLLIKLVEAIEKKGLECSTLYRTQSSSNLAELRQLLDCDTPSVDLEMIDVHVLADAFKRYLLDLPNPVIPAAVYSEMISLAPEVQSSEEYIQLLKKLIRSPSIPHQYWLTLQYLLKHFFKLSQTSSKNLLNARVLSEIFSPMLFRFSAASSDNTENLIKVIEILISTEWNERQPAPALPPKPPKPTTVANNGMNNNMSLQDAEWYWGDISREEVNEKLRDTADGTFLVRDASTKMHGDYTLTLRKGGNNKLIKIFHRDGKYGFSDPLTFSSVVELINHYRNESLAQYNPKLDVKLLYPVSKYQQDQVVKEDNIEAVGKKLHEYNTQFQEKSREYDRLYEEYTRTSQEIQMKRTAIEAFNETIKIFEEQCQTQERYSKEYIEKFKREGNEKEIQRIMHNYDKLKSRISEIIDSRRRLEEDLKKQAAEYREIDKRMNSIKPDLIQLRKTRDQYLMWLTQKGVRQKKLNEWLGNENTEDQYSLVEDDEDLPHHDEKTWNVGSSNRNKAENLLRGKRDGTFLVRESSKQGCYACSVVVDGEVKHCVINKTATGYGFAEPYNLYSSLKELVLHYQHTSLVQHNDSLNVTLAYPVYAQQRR

This assay has as its target H1047R PIK3CA enzyme (Homo sapiens, UniProt P42336, H1047R). Put plainly: ADP-Glo Biochemical PIK3CA Kinase Assay. A general note: In ADP-Glo the light output rises with the ADP produced.
With `O=C(Nc1cc(Br)cc2c1C(c1cc(F)ccc1Cl)NC2=O)c1cc(F)cc2c1NCCC2` (stereo not shown) [Compound I-1385], the IC50 (usually the concentration that inhibits the measured activity by half) was in the range of 500 to 1000 nM.

Compound `O=C(Nc1cc(Br)cc2c1C(c1cc(F)ccc1Cl)NC2=O)c1cccc(SC(F)F)c1` (stereo not shown) [Compound I-1386] displayed an IC50 of 1000 to 10000 nM.

In turn, `CC(=O)N1CCC12CN(c1cc(NC(=O)c3cc(F)cc(C(F)(F)F)c3)c3c(c1)C(=O)NC3c1cc(F)ccc1Cl)C2` (stereo not shown) [Compound I-1387] returned an IC50 of 100 to 500 nM.

In turn, `O=C(Nc1cc(N2CC3(CCN3)C2)cc2c1C(c1cc(F)ccc1Cl)NC2=O)c1cc(F)cc(C(F)(F)F)c1` (stereo not shown) [Compound I-1388] registered an IC50 of 100 to 500 nM.

For `Cn1nccc1C(O)c1cc(NC(=O)c2cc(F)cc(C(F)(F)F)c2)c2c(c1)C(=O)NC2c1cc(F)ccc1Cl` (stereo not shown) [Compound I-1389], the 50% inhibitory concentration (IC50) was at most 100 nM.

Compound `O=C(O)COc1ncc(-c2cc(NC(=O)c3cc(F)cc(C(F)(F)F)c3)c3c(c2)C(=O)NC3c2cc(F)ccc2Cl)cn1` (stereo not shown) [Compound I-1390] showed an IC50 of at most 100 nM.

The compound `N#CCCn1cc(-c2cc(NC(=O)c3cc(F)cc(C(F)(F)F)c3)c3c(c2)C(=O)NC3c2cc(F)ccc2Cl)cn1` (stereo not shown) [Compound I-1397] returned an IC50 of at most 100 nM.

`CS(=O)(=O)CCn1cc(-c2cc(NC(=O)c3cc(F)cc(C(F)(F)F)c3)c3c(c2)C(=O)NC3c2cc(F)ccc2Cl)cn1` (stereo not shown) [Compound I-1398] came in with an IC50 of at most 100 nM.

Consider `O=C(Nc1cc(CS(=O)(=O)N2CCC2)cc2c1C(c1cc(F)ccc1Cl)NC2=O)c1cc(F)cc(C(F)(F)F)c1` (stereo not shown) [Compound I-1399], for which the IC50 is at most 100 nM.

`O=C(Nc1cc(CN2CCn3ncnc3C2)cc2c1C(c1cc(F)ccc1Cl)NC2=O)c1cc(F)cc(C(F)(F)F)c1` (stereo not shown) [Compound I-1400]: the IC50 was at most 100 nM.

The compound `O=C(Nc1cc(CN2CCn3cnnc3C2)cc2c1C(c1cc(F)ccc1Cl)NC2=O)c1cc(F)cc(C(F)(F)F)c1` (stereo not shown) [Compound I-1401] had an IC50 of at most 100 nM.

On to `O=C(Nc1cc(CS(=O)(=O)Nc2cccnc2)cc2c1C(c1cc(F)ccc1Cl)NC2=O)c1cc(F)cc(C(F)(F)F)c1` (stereo not shown) [Compound I-1402], for which the IC50 was at most 100 nM.

On to `CC(O)(c1ccncc1)c1cc(NC(=O)c2cc(F)cc(C(F)(F)F)c2)c2c(c1)C(=O)NC2c1cc(F)ccc1Cl` (stereo not shown) [Compound I-1403], for which the IC50 is at most 100 nM.

As for `Cn1cc(-c2cc(NC(=O)c3cc(F)cc(C(F)(F)F)c3)c3c(c2)C(=O)NC3c2cc(F)ccc2Cl)cnc1=O` (stereo not shown) [Compound I-1404], the IC50 is at most 100 nM.

Take `N#Cc1cccnc1-c1cc(NC(=O)c2cc(F)cc(C(F)(F)F)c2)c2c(c1)C(=O)NC2c1cc(F)ccc1Cl` (stereo not shown) [Compound I-1408]: the IC50 is at most 100 nM.

`Nc1cnc2ccc(-c3cc(NC(=O)c4cc(F)cc(C(F)(F)F)c4)c4c(c3)C(=O)NC4c3cc(F)ccc3Cl)cn12` (stereo not shown) [Compound I-1409] came in with an IC50 of at most 100 nM.

In turn, `N#Cc1cnc2ccc(-c3cc(NC(=O)c4cc(F)cc(C(F)(F)F)c4)c4c(c3)C(=O)NC4c3cc(F)ccc3Cl)cn12` (stereo not shown) [Compound I-1410] yielded an IC50 of at most 100 nM.

For `Nc1cn2cc(-c3cc(NC(=O)c4cc(F)cc(C(F)(F)F)c4)c4c(c3)C(=O)NC4c3cc(F)ccc3Cl)ccc2n1` (stereo not shown) [Compound I-1411], the IC50 was at most 100 nM.

In the case of `O=C(Nc1cc(OCc2cccnc2)cc2c1C(c1cc(F)ccc1Cl)NC2=O)c1cc(F)cc(C(F)(F)F)c1` (stereo not shown) [Compound I-1412], the IC50 is at most 100 nM.

As to `[2H]C1(c2cc(F)ccc2Cl)NC(=O)c2cc(-c3ccc4ncnn4c3)cc(NC(=O)c3cc(F)cc(C(F)(F)F)c3)c21` (stereo not shown) [Compound I-1413], the IC50 is at most 100 nM.

In turn, `O=C(Nc1cc(OCC(O)CCO)cc2c1C(c1cc(F)ccc1Cl)NC2=O)c1cc(F)cc(C(F)(F)F)c1` (stereo not shown) [Compound I-1414] yielded an IC50 of at most 100 nM.

`O=C(Nc1cc(-c2ccc3ocnc3c2)cc2c1C(c1cc(F)ccc1Cl)NC2=O)c1cc(F)cc(C(F)(F)F)c1` (stereo not shown) [Compound I-1415] displayed an IC50 of at most 100 nM.

Compound `NC(=O)COc1ncc(-c2cc(NC(=O)c3cc(F)cc(C(F)(F)F)c3)c3c(c2)C(=O)NC3c2cc(F)ccc2Cl)cn1` (stereo not shown) [Compound I-1416] returned an IC50 of at most 100 nM.

The compound `O=C(Nc1cc(Br)cc2c1C(c1cc(F)ccc1Cl)NC2=O)c1csc(Cl)c1Cl` (stereo not shown) [Compound I-1417] yielded an IC50 of 1000 to 10000 nM.

On to `COc1ncc(-c2cc(NC(=O)c3cc(F)cc(C(F)(F)F)c3)c3c(c2)C(=O)NC3c2cc(F)ccc2Cl)cc1F` (stereo not shown) [Compound I-1419], for which the IC50 was at most 100 nM.

As for `N#CCn1cc(-c2cc(NC(=O)c3cc(F)cc(C(F)(F)F)c3)c3c(c2)C(=O)NC3c2cc(F)ccc2Cl)cn1` (stereo not shown) [Compound I-1420], the IC50 is at most 100 nM.

In turn, `CC(C)(O)COc1cc(NC(=O)c2cc(F)cc(C(F)(F)F)c2)c2c(n1)C(=O)NC2c1cc(F)ccc1Cl` (stereo not shown) [Compound I-1421] showed an IC50 of 100 to 500 nM.

`C=CCCNC(=O)c1cc(NC(=O)c2cc(F)cc(C(F)(F)F)c2)c2c(c1)C(=O)NC2c1cc(F)ccc1Cl` (stereo not shown) [Compound I-1422] displayed a 50% inhibitory concentration (IC50) of at most 100 nM.

On to `O=C(Nc1cc(Br)cc2c1C(c1cc(F)ccc1Cl)NC2=O)c1ccc(C(F)(F)F)o1` (stereo not shown) [Compound I-1423], for which the IC50 lay in the range of 1000 to 10000 nM.

In the case of `O=C1NC(c2cc(F)ccc2Cl)c2c(NC(=O)c3cc(F)cc4ccc(=O)[nH]c34)cc(Br)cc21` (stereo not shown) [Compound I-1424], the IC50 was in the range of 1000 to 10000 nM.

Consider `Nc1csnc1C(=O)Nc1cc(Br)cc2c1C(c1cc(F)ccc1Cl)NC2=O` (stereo not shown) [Compound I-1425], for which the IC50 is 10000 to 100000 nM.

In turn, `O=C1NC(c2cc(F)ccc2Cl)c2c(NC(=O)c3nsc(Cl)c3Cl)cc(Br)cc21` (stereo not shown) [Compound I-1426] registered an IC50 of 1000 to 10000 nM.

Compound `O=C(Nc1cc(Br)cc2c1C(c1cc(F)ccc1Cl)NC2=O)c1ccc(C(F)(F)F)s1` (stereo not shown) [Compound I-1427] registered an IC50 of 1000 to 10000 nM.

For `O=C(Nc1cc(Br)cc2c1C(c1cc(F)ccc1Cl)NC2=O)c1cc(C(F)(F)F)cs1` (stereo not shown) [Compound I-1428], the IC50 fell in the range of 1000 to 10000 nM.

As to `O=C1NC(c2cc(F)ccc2Cl)c2c(NC(=O)N3CCc4ccc(=O)[nH]c43)cc(Br)cc21` (stereo not shown) [Compound I-1429], the IC50 was 10000 to 100000 nM.

`O=C(Nc1cc(Cn2ccnc2)cc2c1C(c1cc(F)ccc1Cl)NC2=O)c1cc(F)cc(C(F)(F)F)c1` (stereo not shown) [Compound I-1430] returned an IC50 of at most 100 nM.

Take `Cc1ccccc1S(=O)(=O)Cc1cc(NC(=O)c2cc(F)cc(C(F)(F)F)c2)c2c(c1)C(=O)NC2c1cc(F)ccc1Cl` (stereo not shown) [Compound I-1433]: the IC50 was at most 100 nM.

`CN=S(C)(=O)Cc1cc(NC(=O)c2cc(F)cc(C(F)(F)F)c2)c2c(c1)C(=O)NC2c1cc(F)ccc1Cl` (stereo not shown) [Compound I-1434] showed an IC50 of at most 100 nM.

For `CS(=O)(Cc1cc(NC(=O)c2cc(F)cc(C(F)(F)F)c2)c2c(c1)C(=O)NC2c1cc(F)ccc1Cl)=Nc1ccccc1` (stereo not shown) [Compound I-1435], the half-maximal inhibitory concentration (IC50) is at most 100 nM.

With `O=C(Nc1cc(CS(=O)(=O)c2ccccc2)cc2c1C(c1cc(F)ccc1Cl)NC2=O)c1cc(F)cc(C(F)(F)F)c1` (stereo not shown) [Compound I-1436], the IC50 was at most 100 nM.

`N#Cc1cc2nccn2cc1-c1cc(NC(=O)c2cc(F)cc(C(F)(F)F)c2)c2c(c1)C(=O)NC2c1cc(F)ccc1Cl` (stereo not shown) [Compound I-1437] returned an IC50 of at most 100 nM.

Take `COc1ccc(-c2cc(NC(=O)c3cc(F)cc(C(F)(F)F)c3)c3c(c2)C(=O)NC3c2cc(F)ccc2Cl)nn1` (stereo not shown) [Compound I-1438]: the IC50 is at most 100 nM.

The compound `CN(C)S(=O)(=O)n1nccc1-c1cc(NC(=O)c2cc(F)cc(C(F)(F)F)c2)c2c(c1)C(=O)NC2c1cc(F)ccc1Cl` (stereo not shown) [Compound I-1439] registered an IC50 of at most 100 nM.

`O=C(Nc1cc(-c2cn3ncnc3cn2)cc2c1[C@@H](c1cc(F)ccc1Cl)NC2=O)c1cc(F)cc(C(F)(F)F)c1` [Compound I-1440] yielded an IC50 of 1000 to 10000 nM.

`N#Cc1cnc2ccc(-c3cc(NC(=O)c4cc(F)cc(C(F)(F)F)c4)c4c(c3)C(=O)N[C@@H]4c3cc(F)ccc3Cl)cn12` [Compound I-1442] yielded an IC50 of 100 to 500 nM.

In the case of `N#Cc1cnc2ccc(-c3cc(NC(=O)c4cc(F)cc(C(F)(F)F)c4)c4c(c3)C(=O)N[C@H]4c3cc(F)ccc3Cl)cn12` [Compound I-1443], the IC50 was at most 100 nM.

`Nc1nc2ccc(-c3cc(NC(=O)c4cc(F)cc(C(F)(F)F)c4)c4c(c3)C(=O)N[C@@H]4c3cc(F)ccc3Cl)cn2n1` [Compound I-1444] displayed an IC50 of at most 100 nM.

Take `Nc1nc2ccc(-c3cc(NC(=O)c4cc(F)cc(C(F)(F)F)c4)c4c(c3)C(=O)N[C@H]4c3cc(F)ccc3Cl)cn2n1` [Compound I-1445]: the half-maximal inhibitory concentration (IC50) is at most 100 nM.

On to `Nc1nc2cc(-c3cc(NC(=O)c4cc(F)cc(C(F)(F)F)c4)c4c(c3)C(=O)N[C@@H]4c3cc(F)ccc3Cl)ccn2n1` [Compound I-1446], for which the IC50 was at most 100 nM.

`Nc1nc2cc(-c3cc(NC(=O)c4cc(F)cc(C(F)(F)F)c4)c4c(c3)C(=O)N[C@H]4c3cc(F)ccc3Cl)ccn2n1` [Compound I-1447] returned a half-maximal inhibitory concentration (IC50) of at most 100 nM.

Consider `Nc1nnc2ccc(-c3cc(NC(=O)c4cc(F)cc(C(F)(F)F)c4)c4c(c3)C(=O)N[C@@H]4c3cc(F)ccc3Cl)cn12` [Compound I-1448], for which the IC50 was in the range of 500 to 1000 nM.

`Nc1nnc2ccc(-c3cc(NC(=O)c4cc(F)cc(C(F)(F)F)c4)c4c(c3)C(=O)N[C@H]4c3cc(F)ccc3Cl)cn12` [Compound I-1449] returned an IC50 of at most 100 nM.

Consider `O=C(Nc1cc(-c2ccn3ccnc3c2)cc2c1[C@H](c1cc(F)ccc1Cl)NC2=O)c1cc(F)cc(C(F)(F)F)c1` [Compound I-1450], for which the IC50 is at most 100 nM.

Consider `O=C(Nc1cc(-c2ccn3ccnc3c2)cc2c1[C@@H](c1cc(F)ccc1Cl)NC2=O)c1cc(F)cc(C(F)(F)F)c1` [Compound I-1451], for which the IC50 lay within 100 to 500 nM.

In turn, `O=C(Nc1cc(-c2ccc3nnnn3c2)cc2c1[C@@H](c1cc(F)ccc1Cl)NC2=O)c1cc(F)cc(C(F)(F)F)c1` [Compound I-1452] yielded an IC50 of 1000 to 10000 nM.

`O=C(Nc1cc(-c2ccc3nnnn3c2)cc2c1[C@H](c1cc(F)ccc1Cl)NC2=O)c1cc(F)cc(C(F)(F)F)c1` [Compound I-1453] had an IC50 of at most 100 nM.

For the compound `N#CCn1ccnc1-c1cc(NC(=O)c2cc(F)cc(C(F)(F)F)c2)c2c(c1)C(=O)NC2c1cc(F)ccc1Cl` (stereo not shown) [Compound I-1454], the IC50 is 100 to 500 nM.

Compound `CS(=O)(=O)c1ccc(-c2cc(NC(=O)c3cc(F)cc(C(F)(F)F)c3)c3c(c2)C(=O)NC3c2cc(F)ccc2Cl)cn1` (stereo not shown) [Compound I-1455] registered an IC50 of at most 100 nM.
